From ChEMBL document CHEMBL1275409, “Antimicrobial-resistant pathogens in intensive care units in Canada: results of the Canadian National Intensive Care Unit (CAN-ICU) study, 2005-2006” (2008)

Assays:
Type in all cases: functional
[1] = test system: Staphylococcus aureus; experiment: Antimicrobial activity against methicillin-resistant Staphylococcus aureus isolated from ICU patient respiratory tract assessed as resistant isolates by broth microdilution method
[2] = test system: Staphylococcus aureus; experiment: Antimicrobial activity against methicillin-resistant Staphylococcus aureus isolated from ICU patient wound assessed as resistant isolates by broth microdilution method
[3] = test system: Staphylococcus aureus; experiment: Antimicrobial activity against methicillin-resistant Staphylococcus aureus isolated from ICU patient urine assessed as resistant isolates by broth microdilution method
[4] = test system: Staphylococcus aureus; experiment: Antimicrobial activity against methicillin-resistant Staphylococcus aureus isolated from ICU patient blood assessed as resistant isolates by broth microdilution method
[5] = test system: Staphylococcus aureus; experiment: Antimicrobial activity against methicillin-resistant Staphylococcus aureus assessed as resistant isolates by broth microdilution method
[6] = test system: Staphylococcus aureus; experiment: Antimicrobial activity against methicillin-susceptible Staphylococcus aureus isolated from ICU patient respiratory tract assessed as resistant isolates by broth microdilution method
[7] = test system: Staphylococcus aureus; experiment: Antimicrobial activity against methicillin-susceptible Staphylococcus aureus isolated from ICU patient wound assessed as resistant isolates by broth microdilution method
[8] = test system: Staphylococcus aureus; experiment: Antimicrobial activity against methicillin-susceptible Staphylococcus aureus isolated from ICU patient urine assessed as resistant isolates by broth microdilution method
[9] = test system: Staphylococcus aureus; experiment: Antimicrobial activity against methicillin-susceptible Staphylococcus aureus isolated from ICU patient blood assessed as resistant isolates by broth microdilution method
[10] = test system: Staphylococcus aureus; experiment: Antimicrobial activity against methicillin-susceptible Staphylococcus aureus assessed as resistant isolates by broth microdilution method
[11] = test system: Enterococcus sp.; experiment: Antimicrobial activity against vancomycin-resistant Enterococcus sp. isolated from ICU patient respiratory tract assessed as resistant isolates by broth microdilution method
[12] = test system: Enterococcus sp.; experiment: Antimicrobial activity against vancomycin-resistant Enterococcus sp. isolated from ICU patient wound assessed as resistant isolates by broth microdilution method
[13] = test system: Enterococcus sp.; experiment: Antimicrobial activity against vancomycin-resistant Enterococcus sp. isolated from ICU patient urine assessed as resistant isolates by broth microdilution method
[14] = test system: Enterococcus sp.; experiment: Antimicrobial activity against vancomycin-resistant Enterococcus sp. assessed as resistant isolates by broth microdilution method
[15] = test system: Enterococcus sp.; experiment: Antimicrobial activity against vancomycin-resistant Enterococcus sp. isolated from ICU patient blood assessed as resistant isolates by broth microdilution method
[16] = test system: Staphylococcus epidermidis; experiment: Antimicrobial activity against methicillin-resistant Staphylococcus epidermidis isolated from ICU patient wound assessed as resistant isolates by broth microdilution method
[17] = test system: Staphylococcus epidermidis; experiment: Antimicrobial activity against methicillin-resistant Staphylococcus epidermidis isolated from ICU patient urine assessed as resistant isolates by broth microdilution method
[18] = test system: Staphylococcus epidermidis; experiment: Antimicrobial activity against methicillin-resistant Staphylococcus epidermidis isolated from ICU patient blood assessed as resistant isolates by broth microdilution method
[19] = test system: Staphylococcus epidermidis; experiment: Antimicrobial activity against methicillin-resistant Staphylococcus epidermidis assessed as resistant isolates by broth microdilution method
[20] = test system: Staphylococcus epidermidis; experiment: Antimicrobial activity against methicillin-susceptible Staphylococcus epidermidis isolated from ICU patient wound assessed as resistant isolates by broth microdilution method
[21] = test system: Staphylococcus epidermidis; experiment: Antimicrobial activity against methicillin-susceptible Staphylococcus epidermidis isolated from ICU patient urine assessed as resistant isolates by broth microdilution method
[22] = test system: Staphylococcus epidermidis; experiment: Antimicrobial activity against methicillin-susceptible Staphylococcus epidermidis isolated from ICU patient blood assessed as resistant isolates by broth microdilution method
[23] = test system: Staphylococcus epidermidis; experiment: Antimicrobial activity against methicillin-susceptible Staphylococcus epidermidis assessed as resistant isolates by broth microdilution method
[24] = test system: Pseudomonas aeruginosa; experiment: Antimicrobial activity against carbapenem-resistant Pseudomonas aeruginosa isolated from ICU patient respiratory tract assessed as resistant isolates by broth microdilution method
[25] = test system: Pseudomonas aeruginosa; experiment: Antimicrobial activity against carbapenem-resistant Pseudomonas aeruginosa isolated from ICU patient wound assessed as resistant isolates by broth microdilution method
[26] = test system: Pseudomonas aeruginosa; experiment: Antimicrobial activity against carbapenem-resistant Pseudomonas aeruginosa isolated from ICU patient urine assessed as resistant isolates by broth microdilution method
[27] = test system: Pseudomonas aeruginosa; experiment: Antimicrobial activity against carbapenem-resistant Pseudomonas aeruginosa isolated from ICU patient blood assessed as resistant isolates by broth microdilution method
[28] = test system: Pseudomonas aeruginosa; experiment: Antimicrobial activity against carbapenem-resistant Pseudomonas aeruginosa assessed as resistant isolates by broth microdilution method
[29] = test system: Escherichia coli; experiment: Antimicrobial activity against CTX-M ESBL producing Escherichia coli isolated from ICU patient respiratory tract assessed as resistant isolates by broth microdilution method
[30] = test system: Escherichia coli; experiment: Antimicrobial activity against CTX-M ESBL producing Escherichia coli isolated from ICU patient wound assessed as resistant isolates by broth microdilution method
[31] = test system: Escherichia coli; experiment: Antimicrobial activity against CTX-M ESBL producing Escherichia coli isolated from ICU patient urine assessed as resistant isolates by broth microdilution method
[32] = test system: Escherichia coli; experiment: Antimicrobial activity against CTX-M ESBL producing Escherichia coli isolated from ICU patient blood assessed as resistant isolates by broth microdilution method
[33] = test system: Escherichia coli; experiment: Antimicrobial activity against CTX-M ESBL producing Escherichia coli assessed as resistant isolates by broth microdilution method
[34] = test system: Staphylococcus epidermidis; experiment: Antimicrobial activity against methicillin-susceptible Staphylococcus epidermidis isolated from ICU patient respiratory tract assessed as resistant isolates by broth microdilution method
[35] = test system: Streptococcus pneumoniae; experiment: Antimicrobial activity against penicillin-resistant Streptococcus pneumoniae isolated from ICU patient respiratory tract assessed as resistant isolates by broth microdilution method
[36] = test system: Streptococcus pneumoniae; experiment: Antimicrobial activity against penicillin-resistant Streptococcus pneumoniae isolated from ICU patient wound assessed as resistant isolates by broth microdilution method
[37] = test system: Streptococcus pneumoniae; experiment: Antimicrobial activity against penicillin-resistant Streptococcus pneumoniae isolated from ICU patient blood assessed as resistant isolates by broth microdilution method
[38] = test system: Streptococcus pneumoniae; experiment: Antimicrobial activity against penicillin-resistant Streptococcus pneumoniae assessed as resistant isolates by broth microdilution method

Molecule `CCCCCCCCCC(=O)N[C@@H](Cc1c[nH]c2ccccc12)C(=O)N[C@H](CC(N)=O)C(=O)N[C@@H](CC(=O)O)C(=O)N[C@@H]1C(=O)NCC(=O)N[C@@H](CCCN)C(=O)N[C@@H](CC(=O)O)C(=O)N[C@H](C)C(=O)N[C@@H](CC(=O)O)C(=O)NCC(=O)N[C@H](CO)C(=O)N[C@@H]([C@H](C)CC(=O)O)C(=O)N[C@@H](CC(=O)c2ccccc2N)C(=O)O[C@@H]1C` has an Activity [1] of 0%, an Activity [2] of 0% and an Activity [3] of 0%. The Activity [4] was 0%, the Activity [5] was 0% and the Activity [6] was 0%. For the same molecule, the Activity [7] was 0%, the Activity [8] was 0% and the Activity [9] was 0%. The Activity [10] was 0%, the Activity [11] was 0% and the Activity [12] was 0%. For the same molecule, the Activity [13] was 0%, the Activity [14] was 0% and the Activity [15] was 0%. For the same molecule, the Activity [16] was 0%, the Activity [17] was 0% and the Activity [18] was 0%. For the same molecule, the Activity [19] was 0%, the Activity [20] was 0% and the Activity [21] was 0%. It also gave an Activity [22] of 0% and an Activity [23] of 0%.

`Cc1nnc(SCC2=C(C(=O)O)N3C(=O)[C@@H](NC(=O)Cn4cnnn4)[C@H]3SC2)s1` [CEFAZOLIN] gave an Activity [1] of 100%, an Activity [2] of 100% and an Activity [3] of 100%. It also gave an Activity [4] of 100%, an Activity [5] of 100% and an Activity [6] of 0%. It also gave an Activity [7] of 0%, an Activity [8] of 0% and an Activity [9] of 0%. It also gave an Activity [10] of 0%, an Activity [24] of 4.9% and an Activity [25] of 7.7%. For the same molecule, the Activity [26] was 7.8%, the Activity [27] was 7.7% and the Activity [28] was 6.2%. The Activity [29] was 11.5%, the Activity [30] was 8.6% and the Activity [31] was 25.8%. The Activity [32] was 21.9%, the Activity [33] was 20.1% and the Activity [16] was 100%. For the same molecule, the Activity [17] was 100%, the Activity [18] was 100% and the Activity [19] was 100%. It also gave an Activity [34] of 0%, an Activity [20] of 0% and an Activity [21] of 0%. It also gave an Activity [22] of 0% and an Activity [23] of 0%.

`CC[C@H]1OC(=O)[C@H](C)[C@@H](O[C@H]2C[C@@](C)(OC)[C@@H](O)[C@H](C)O2)[C@H](C)[C@@H](O[C@@H]2O[C@H](C)C[C@H](N(C)C)[C@H]2O)[C@](C)(OC)C[C@@H](C)C(=O)[C@H](C)[C@@H](O)[C@]1(C)O` [CLARITHROMYCIN] was tested, and the Activity [3] was 100%, the Activity [6] was 19.5% and the Activity [7] was 23.9%. It also gave an Activity [8] of 30%, an Activity [9] of 16.1% and an Activity [10] of 20.1%. For the same molecule, the Activity [11] was 61.5%, the Activity [12] was 60.3% and the Activity [13] was 70.1%. The Activity [14] was 65.9%, the Activity [15] was 68.6% and the Activity [35] was 16.4%. It also gave an Activity [36] of 16.7%, an Activity [37] of 13.2% and an Activity [38] of 15.9%. For the same molecule, the Activity [16] was 94.1%, the Activity [17] was 100% and the Activity [18] was 100%. For the same molecule, the Activity [19] was 96%, the Activity [20] was 79.2% and the Activity [21] was 100%. It also gave an Activity [22] of 74.6% and an Activity [23] of 77.4%.

`CCC[C@@H]1C[C@@H](C(=O)N[C@@H]([C@H]2O[C@H](SC)[C@H](O)[C@@H](O)[C@H]2O)[C@H](C)Cl)N(C)C1` [CLINDAMYCIN] gave an Activity [1] of 72.9%, an Activity [2] of 81.5% and an Activity [3] of 100%. The Activity [4] was 79.6%, the Activity [5] was 76.1% and the Activity [6] was 4.3%. It also gave an Activity [7] of 3.5%, an Activity [8] of 10% and an Activity [9] of 4.6%. The Activity [10] was 4.4%, the Activity [35] was 6.4% and the Activity [36] was 0%. The Activity [37] was 2.6%, the Activity [38] was 5.6% and the Activity [16] was 88.2%. It also gave an Activity [17] of 100%, an Activity [18] of 100% and an Activity [19] of 92%. The Activity [20] was 70.8%, the Activity [21] was 100% and the Activity [22] was 43.6%. The Activity [23] was 54.8%.

With `CC(=O)NC[C@H]1CN(c2ccc(N3CCOCC3)c(F)c2)C(=O)O1` [LINEZOLID] the Activity [1] was 0%, the Activity [2] was 0% and the Activity [3] was 0%. For the same molecule, the Activity [4] was 0%, the Activity [5] was 0% and the Activity [6] was 0%. The Activity [7] was 0%, the Activity [8] was 0% and the Activity [9] was 0%. For the same molecule, the Activity [10] was 0%, the Activity [11] was 0% and the Activity [12] was 1.6%. It also gave an Activity [13] of 1.5%, an Activity [14] of 1.8% and an Activity [15] of 2.9%. The Activity [35] was 0%, the Activity [36] was 0% and the Activity [37] was 0%. The Activity [38] was 0%, the Activity [16] was 0% and the Activity [17] was 0%. It also gave an Activity [18] of 0%, an Activity [19] of 0% and an Activity [20] of 0%. For the same molecule, the Activity [21] was 0%, the Activity [22] was 0% and the Activity [23] was 0%.

Work on `COc1c(N2C[C@@H]3CCCN[C@@H]3C2)c(F)cc2c(=O)c(C(=O)O)cn(C3CC3)c12` [MOXIFLOXACIN] yielded an Activity [1] of 91.5%, an Activity [2] of 88.9% and an Activity [3] of 100%. For the same molecule, the Activity [4] was 89.8%, the Activity [5] was 90.1% and the Activity [6] was 5.8%. The Activity [7] was 7.1%, the Activity [8] was 15% and the Activity [9] was 6.9%. It also gave an Activity [10] of 6.4%, an Activity [35] of 1.6% and an Activity [36] of 0%. The Activity [37] was 0%, the Activity [38] was 1.3% and the Activity [16] was 100%. The Activity [17] was 100%, the Activity [18] was 83.3% and the Activity [19] was 96%. It also gave an Activity [20] of 50%, an Activity [21] of 80% and an Activity [22] of 34.6%. It also gave an Activity [23] of 41.7%.

`CN[C@H](CC(C)C)C(=O)N[C@H]1C(=O)N[C@@H](CC(N)=O)C(=O)N[C@H]2C(=O)N[C@H]3C(=O)N[C@H](C(=O)N[C@H](C(=O)O)c4cc(O)cc(O)c4-c4cc3ccc4O)[C@H](O)c3ccc(c(Cl)c3)Oc3cc2cc(c3O[C@@H]2O[C@H](CO)[C@@H](O)[C@H](O)[C@H]2O[C@H]2C[C@](C)(N)[C@H](O)[C@H](C)O2)Oc2ccc(cc2Cl)[C@H]1O` [VANCOMYCIN] showed an Activity [1] of 0%, an Activity [2] of 0% and an Activity [3] of 0%. It also gave an Activity [4] of 0%, an Activity [5] of 0% and an Activity [6] of 0%. For the same molecule, the Activity [7] was 0%, the Activity [8] was 0% and the Activity [9] was 0%. The Activity [10] was 0%, the Activity [11] was 3.3% and the Activity [12] was 12.5%. It also gave an Activity [13] of 4%, an Activity [14] of 6.8% and an Activity [15] of 5.4%. It also gave an Activity [35] of 0%, an Activity [36] of 0% and an Activity [37] of 0%. The Activity [38] was 0%, the Activity [16] was 0% and the Activity [17] was 0%. For the same molecule, the Activity [18] was 0%, the Activity [19] was 0% and the Activity [34] was 0%. The Activity [20] was 0%, the Activity [21] was 0% and the Activity [22] was 0%. It also gave an Activity [23] of 0%.
